Assay results reported in patent US8916702B2 (priority 2012, dated 2014).

System: HCV pseudoparticles (genotype 1a HCV E1 and E2 envelope, H77C isolate)
Experiment: microbe, parasite or virus in culture
Format: cell-based
Settings: Hepatitis C virus, Huh-7, 48 h, HCV pseudoparticle infection of Huh7 cells, luciferase 2 days after infection; average of duplicates

Compound | EC50 [nM]
COc1cccc(NC(=O)C(=O)NCC[C@H](NC(=O)c2ccc(Nc3nc(NC4(c5ccc(Cl)cc5)CC4)nc(OCC(F)(F)F)n3)cc2)C(=O)O)c1 [Compound 1270] | 0.13
COC(=O)[C@H](CNC(=O)C(=O)NCC1CCOCC1)NC(=O)c1ccc(Nc2nc(NC3(c4ccc(Cl)cc4)CC3)nc(OCC(F)(F)F)n2)cc1 [Compound 1456] | 3.45

Same assay, conditions: Hepatitis C virus, Huh-7, 48 h, HCV pseudoparticles (genotype 1a, H77C) in Huh7 cells; average of duplicate; luciferase 2 days after infection

Compound | EC50 [nM]
COC(=O)/C(CCNC(=O)C(=O)Nc1ccc(-n2nnnc2C)cc1)=N\C(=O)c1ccc(Nc2nc(NC3(c4ccc(Cl)cc4)CC3)nc(OCC(F)(F)F)n2)cc1 [Compound 3135] | 3.69
CC(C)(CNC(=O)C(N)=O)CNC(=O)c1ccc(Nc2nc(NC3(c4ccc(Cl)cc4)CC3)nc(OCC(F)(F)F)n2)cc1Cl [Compound 3477] | 0.12
CC(C)(CNC(=O)C(=O)Nc1ccc(C(=O)c2ccc(NC(=O)CCCCCNC(=O)CCCC[C@H]3SC[C@@H]4NC(=O)N[C@@H]43)cc2)cc1)CNC(=O)c1ccc(Nc2nc(NC3(c4ccc(Cl)cc4)CC3)nc(OCC(F)(F)F)n2)cc1 [Compound 3558] | 0.26
COC(=O)[C@H](CNC(=O)C(=O)Nc1ccc(-n2nnnc2C)cc1)NC(=O)c1ccc(Nc2nc(NC3(c4ccc(Cl)cc4)CC3)nc(OCC(F)(F)F)n2)cc1 [Compound 3107] | 0.92
O=C(NCC(O)CNC(=O)c1ccc(Nc2nc(NC3(c4ccc(Cl)cc4)CC3)nc(OCC(F)(F)F)n2)cc1)C(=O)Nc1ccc(F)cc1 (stereo not shown) [Compound 3365] | 0.024

Same assay, conditions: Hepatitis C virus, Huh-7, 48 h, HCV pseudoparticles, Huh7 cells, luciferase 2 days after infection; average of duplicates

Compound | EC50 [nM]
CC(C)(O)C=Cc1cccc(NC(=O)C(=O)NCC[C@H](NC(=O)c2ccc(Nc3nc(NC4(c5ccc(Cl)cc5)CC4)nc(OCC(F)(F)F)n3)cc2)C(=O)O)c1 [Compound 3648] | 0.2

Same assay, conditions: Hepatitis C virus, Huh-7, 48 h, read-out: Activity (EC50 class), HCV pseudoparticle infection of Huh7 cells, luciferase 2 days after infection; EC50 expressed as class A/B

Compound | EC50 [nM]
COC(=O)[C@@H](CCNC(=O)C(O)NCC1CC1c1cccc(F)c1)NC(=O)c1ccc(Nc2nc(NC3(c4ccc(Cl)cc4)CC3)nc(OCC(F)(F)F)n2)cc1 (stereo partly shown) [Compound 1376] | 0.01 to 10
COC(=O)[C@H](CCNC(=O)C(=O)NCc1ccccc1OC)NC(=O)c1ccc(Nc2nc(NC3(c4ccc(Cl)cc4)CC3)nc(OCC(F)(F)F)n2)cc1 [Compound 1155] | 0.01 to 10
COC(=O)[C@H](CCNC(=O)C(=O)Nc1ccc(OC)nc1)NC(=O)c1ccc(Nc2nc(NC3(c4ccc(Cl)cc4)CC3)nc(OCC(F)(F)F)n2)cc1 [Compound 1218] | 0.01 to 10
O=C(NCC[C@H](NC(=O)c1ccc(Nc2nc(NC3(c4ccc(Cl)cc4)CC3)nc(OCC(F)(F)F)n2)cc1)C(=O)O)C(=O)NCc1cccc(F)c1 [Compound 1178] | 0.01 to 10
COc1cccc(NC(=O)C(=O)NCC[C@H](NC(=O)c2ccc(Nc3nc(NC4(c5ccc(Cl)cc5)CC4)nc(OCC(F)(F)F)n3)cc2)C(=O)O)c1 [Compound 1270] | 0.01 to 10
COC(=O)[C@H](CNC(=O)C(=O)NCC1CCOCC1)NC(=O)c1ccc(Nc2nc(NC3(c4ccc(Cl)cc4)CC3)nc(OCC(F)(F)F)n2)cc1 [Compound 1456] | 0.01 to 10
Cc1ccc(CNC(=O)C(=O)NCC[C@H](NC(=O)c2ccc(Nc3nc(NC4(c5ccc(Cl)cc5)CC4)nc(OCC(F)(F)F)n3)cc2)C(=O)O)cc1 [Compound 1185] | 0.01 to 10
CC(C)(C)OC(=O)NC1(CNC(=O)C(=O)NCC[C@H](NC(=O)c2ccc(Nc3nc(NC4(c5ccc(Cl)cc5)CC4)nc(OCC(F)(F)F)n3)cc2)C(=O)O)CC1 [Compound 1425] | 0.01 to 10
O=C(NCC[C@H](NC(=O)c1ccc(Nc2nc(NC3(c4ccc(Cl)cc4)CC3)nc(OCC(F)(F)F)n2)cc1)C(=O)O)C(=O)NCC1CC1(Cl)Cl (stereo partly shown) [Compound 1445] | 0.01 to 10
O=C(NCC[C@H](NC(=O)c1ccc(Nc2nc(NC3(c4ccc(Cl)cc4)CC3)nc(OCC(F)(F)F)n2)cc1)C(=O)O)C(=O)NCC1CCCCCC1 [Compound 1207] | 0.01 to 10
CC(C)(CNC(=O)C(=O)Nc1ccc(CC(=O)O)cc1)CNC(=O)c1ccc(Nc2nc(NC3(c4ccc(Cl)cc4)CC3)nc(OCC(F)(F)F)n2)cc1 [Compound 1481] | 0.01 to 10
CC(C)(CNC(=O)C(=O)Nc1ccccc1)CNC(=O)c1ccc(Nc2nc(NC3(c4ccc(Cl)cc4)CC3)nc(OCC(F)(F)F)n2)cc1 [Compound 1537] | 0.01 to 10
COC(=O)[C@H](CNC(=O)C(=O)Nc1cnn(C)c1)NC(=O)c1ccc(Nc2nc(NC3(c4ccc(Cl)cc4)CC3)nc(OCC(F)(F)F)n2)cc1 [Compound 1248] | 0.01 to 10
COC(=O)[C@H](CCNC(=O)C(=O)Nc1cccc(F)c1)NC(=O)c1ccc(Nc2nc(NC3(c4ccc(Cl)cc4)CC3)nc(OCC(F)(F)F)n2)cc1 [Compound 1227] | 0.01 to 10

Same assay, conditions: Hepatitis C virus, Huh-7, 48 h, read-out: Activity (EC50 class), HCV pseudoparticles, Huh7 cells, luciferase 2 days after infection; average of duplicates

Compound | EC50 [nM]
CC(C)(O)C=Cc1cccc(NC(=O)C(=O)NCC[C@H](NC(=O)c2ccc(Nc3nc(NC4(c5ccc(Cl)cc5)CC4)nc(OCC(F)(F)F)n3)cc2)C(=O)O)c1 [Compound 3648] | 0.01 to 10
O=C(NC[C@H](NC(=O)c1ccc(Nc2nc(NC3(c4ccc(Cl)cc4)CC3)nc(OCC(F)(F)F)n2)cc1)C(=O)O)C(=O)Nc1ccc(O)nc1 [Compound 3777] | 0.01 to 10
Cc1cc(NC(=O)C(=O)NCC(C)(C)CNC(=O)c2ccc(Nc3nc(NC4(c5ccc(Cl)cc5)CC4)nc(OCC(F)(F)F)n3)cc2)[nH]n1 [Compound 3673] | 0.01 to 10
Cc1ccc(NC(=O)C(=O)NCC(C)(C)CNC(=O)c2ccc(Nc3nc(NC4(c5ccc(Cl)cc5)CC4)nc(OCc4ccccc4Cl)n3)cc2)cc1 [Compound 3850] | 0.01 to 10
Cc1ccc(NC(=O)C(=O)NCC(C)(C)CNC(=O)c2ccc(Nc3nc(NC4(c5ccc(Cl)cc5)CC4)nc(OCc4ccccc4)n3)cc2)cc1 [Compound 3843] | 0.01 to 10
C=Cc1cccc(NC(=O)C(=O)NCC(C)(C)CNC(=O)c2ccc(Nc3nc(NC4(c5ccc(Cl)cc5)CC4)nc(OCC(F)(F)F)n3)cc2)c1 [Compound 3670] | 0.01 to 10

Same assay, conditions: Hepatitis C virus, Huh-7, read-out: Activity (EC50 class), HCV pseudoparticles (genotype 1a, H77C) in Huh7 cells; EC50 expressed as class A/B

Compound | EC50 [nM]
O=C(NC[C@H](NC(=O)c1ccc(Nc2nc(NC3(c4ccc(Cl)cc4)CC3)nc(OCC(F)(F)F)n2)cc1)C(=O)O)C(=O)Nc1ccc(-c2ncco2)cc1 [Compound 3292] | 0.01 to 10
COC(=O)/C(CCNC(=O)C(=O)Nc1ccc(-n2nnnc2C)cc1)=N\C(=O)c1ccc(Nc2nc(NC3(c4ccc(Cl)cc4)CC3)nc(OCC(F)(F)F)n2)cc1 [Compound 3135] | 0.01 to 10
C=C(C)c1ccccc1NC(=O)C(=O)NCC(C)(C)CNC(=O)c1ccc(Nc2nc(NC3(c4ccc(Cl)cc4)CC3)nc(OCC(F)(F)F)n2)cc1 [Compound 3140] | 0.01 to 10
CC(C)(CNC(=O)C(=O)N1CCOCC1)CNC(=O)c1ccc(Nc2nc(NC3(c4ccc(Cl)cc4)CC3)nc(OCC(F)(F)F)n2)cc1 [Compound 3381] | 0.01 to 10
CC(C)(CNC(=O)C(=O)Nc1ccc2ccccc2c1)CNC(=O)c1ccc(Nc2nc(NC3(c4ccc(Cl)cc4)CC3)nc(OCC(F)(F)F)n2)cc1 [Compound 3347] | 0.01 to 10
CC(C)(CNC(=O)C(N)=O)CNC(=O)c1ccc(Nc2nc(NC3(c4ccc(Cl)cc4)CC3)nc(OCC(F)(F)F)n2)cc1Cl [Compound 3477] | 0.01 to 10
CC(C)(CNC(=O)C(=O)Nc1ccc(F)cc1C(F)(F)F)CNC(=O)c1ccc(Nc2nc(NC3(c4ccc(Cl)cc4)CC3)nc(OCC(F)(F)F)n2)cc1 [Compound 3457] | 0.01 to 10
Cc1ccccc1-c1ccc(NC(=O)C(=O)NCCC(NC(=O)c2ccc(Nc3nc(NC4(c5ccc(Cl)cc5)CC4)nc(OCC(F)(F)F)n3)cc2)C(=O)O)cc1 (stereo not shown) [Compound 3525] | 10 to 1000
COC(=O)[C@H](CCNC(=O)C(=O)Nc1ccc(-c2csc(N3CCOCC3)n2)cc1)NC(=O)c1ccc(Nc2nc(NC3(c4ccc(Cl)cc4)CC3)nc(OCC(F)(F)F)n2)cc1 [Compound 3318] | 0.01 to 10
CC(C)(CNC(=O)C(=O)Nc1ccc(C(=O)c2ccc(NC(=O)CCCCCNC(=O)CCCC[C@H]3SC[C@@H]4NC(=O)N[C@@H]43)cc2)cc1)CNC(=O)c1ccc(Nc2nc(NC3(c4ccc(Cl)cc4)CC3)nc(OCC(F)(F)F)n2)cc1 [Compound 3558] | 0.01 to 10
COC(=O)[C@H](CNC(=O)C(=O)Nc1ccc(-n2ccnc2)cc1)NC(=O)c1ccc(Nc2nc(NC3(c4ccc(Cl)cc4)CC3)nc(OCC(F)(F)F)n2)cc1 [Compound 3183] | 0.01 to 10
Cc1ccc(-c2ccccc2NC(=O)C(=O)NCC(C)(C)CNC(=O)c2ccc(Nc3nc(NC4(c5ccc(Cl)cc5)CC4)nc(OCC(F)(F)F)n3)cc2)o1 [Compound 3240] | 0.01 to 10
COc1ccc(NC(=O)C(=O)NCC(C)(C)CNC(=O)c2ccc(Nc3nc(NC4(c5ccc(Cl)cc5)CC4)nc(OCC(F)(F)F)n3)cc2)cn1 [Compound 3257] | 0.01 to 10
O=C(NCCCCNC(=O)c1ccc(Nc2nc(NC3(c4ccc(Cl)cc4)CC3)nc(OCC(F)(F)F)n2)cc1)C(=O)N1CCCCC1 [Compound 3401] | 0.01 to 10
CC(C)(CNC(=O)C(=O)Nc1cccnc1)CNC(=O)c1ccc(Nc2nc(NC3(c4ccc(Cl)cc4)CC3)nc(OCC(F)(F)F)n2)cc1 [Compound 3245] | 0.01 to 10
NC(=O)C(=O)NCC(O)CNC(=O)c1ccc(Nc2nc(NC3(c4ccc(Cl)cc4)CC3)nc(OCC(F)(F)F)n2)cc1 (stereo not shown) [Compound 3458] | 0.01 to 10
CC(C)(CNC(=O)C(=O)Nc1cccc2c1-c1ccccc1C2=O)CNC(=O)c1ccc(Nc2nc(NC3(c4ccc(Cl)cc4)CC3)nc(OCC(F)(F)F)n2)cc1 [Compound 3344] | 0.01 to 10
COC(=O)/C(CCNC(=O)C(=O)NC1CCCC(S(=O)(=O)c2ccccc2)C1)=N\C(=O)c1ccc(Nc2nc(NC3(c4ccc(Cl)cc4)CC3)nc(OCC(F)(F)F)n2)cc1 (stereo not shown) [Compound 3584] | 10 to 1000
Cc1ccc(NC(=O)C(=O)NCC(C)(C)CNC(=O)c2ccc(Nc3nc(NC4(c5ccc(Cl)cc5)CC4)nc(OCC(F)(F)F)n3)cc2)c(C#N)c1 [Compound 3454] | 0.01 to 10
O=C(NCC[C@H](NC(=O)c1ccc(Nc2nc(NC3(c4ccc(Cl)cc4)CC3)nc(OCC(F)(F)F)n2)cc1)C(=O)O)C(=O)Nc1ccc(-n2ccc(C(F)(F)F)n2)cc1 [Compound 3228] | 0.01 to 10
COC(=O)[C@H](CNC(=O)C(=O)Nc1ccc(-n2nnnc2C)cc1)NC(=O)c1ccc(Nc2nc(NC3(c4ccc(Cl)cc4)CC3)nc(OCC(F)(F)F)n2)cc1 [Compound 3107] | 0.01 to 10
Cc1cc2cccc(NC(=O)C(=O)NCC(C)(C)CNC(=O)c3ccc(Nc4nc(NC5(c6ccc(Cl)cc6)CC5)nc(OCC(F)(F)F)n4)cc3)c2o1 [Compound 3354] | 0.01 to 10
O=C(NCC(O)CNC(=O)c1ccc(Nc2nc(NC3(c4ccc(Cl)cc4)CC3)nc(OCC(F)(F)F)n2)cc1)C(=O)Nc1ccc(F)cc1 (stereo not shown) [Compound 3365] | 0.01 to 10
CC(C)(CNC(=O)C(=O)Nc1ccccc1Oc1ccccc1)CNC(=O)c1ccc(Nc2nc(NC3(c4ccc(Cl)cc4)CC3)nc(OCC(F)(F)F)n2)cc1 [Compound 3139] | 0.01 to 10
COC(=O)[C@@H](CCNC(=O)C(=O)Nc1ccc(OCCC2C(=O)c3ccccc3C2=O)nc1)NC(=O)c1ccc(Nc2nc(NC3(c4ccc(Cl)cc4)CC3)nc(OCC(F)(F)F)n2)cc1 [Compound 3569] | 0.01 to 10
CCOCCOc1ccc(NC(=O)C(=O)NCCC(NC(=O)c2ccc(Nc3nc(NC4(c5ccc(Cl)cc5)CC4)nc(OCC(F)(F)F)n3)cc2)C(=O)O)cc1 (stereo not shown) [Compound 3530] | 0.01 to 10
CC(C)(CNC(=O)C(=O)Nc1ccc(C#N)cc1F)CNC(=O)c1ccc(Nc2nc(NC3(c4ccc(Cl)cc4)CC3)nc(OCC(F)(F)F)n2)cc1 [Compound 3383] | 0.01 to 10
